We go through 14 molecules from PubChem BioAssay (NCI).

Test systems include UACC-62 melanoma; SNB-19 CNS; HCT-116 colon; SF-539 CNS; UACC-257 melanoma; ACHN renal; OVCAR-5 ovarian; NCI-H522 lung; MDA-MB-435.
Common to all, as to test: NCI-60 cell line screen, 48 h

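96-well plates; 48 h exposure; 5 concentrations. Endpoints by linear interpolation between flanking doses. Not reached: highest tested concentration assigned. The concentration for 50% growth inhibition is given as GI50. The concentration for full growth arrest is given as TGI.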 Bounds are passed on as bounds.

In the case of `CC(=O)OC1COC(S[As](C)C)C(OC(C)=O)C1OC(C)=O` (configuration not stated), the GI50 is 285 nM in the experiment with UACC-62 melanoma; 14700 nM with SNB-19 CNS; 170 nM with HCT-116 colon; 71.3 nM in the experiment on SF-539 CNS; 2610 nM in the experiment on UACC-257 melanoma; 195 nM in the experiment on ACHN renal. Besides, the GI50 was 226 nM in the experiment with OVCAR-5 ovarian, 32.1 nM with NCI-H522 lung and 64.3 nM in the experiment with MDA-MB-435. Further, the TGI with UACC-62 melanoma was determined as 1.61 µM; with SNB-19 CNS, 49.5 µM; in the experiment with HCT-116 colon it was 2.04 µM; in the experiment with SF-539 CNS, 0.315 µM; with ACHN renal, 1.52 µM; with OVCAR-5 ovarian, 1.8 µM. Also, the TGI with NCI-H522 lung turned out to be 0.139 µM; in the experiment with MDA-MB-435 it was 0.358 µM.
Regarding `O=c1/c(=C/c2ccc(Cl)cc2Cl)sc2nc3ccccc3n12`, the TGI in the experiment on UACC-62 melanoma, in the experiment with SNB-19 CNS, in the experiment on HCT-116 colon, in the experiment on SF-539 CNS, in the experiment with UACC-257 melanoma and in the experiment with ACHN renal was greater than 100 µM in each case. Besides, the TGI in the experiment with OVCAR-5 ovarian and in the experiment with NCI-H522 lung was greater than 100 µM each time.
Consider `Nc1ccc(Nc2nc(F)nc(-c3c4ccccc4c4n3CCS4)n2)cc1`, for which the TGI was 30.3 µM in the experiment with SNB-19 CNS; 28 µM with HCT-116 colon; 27.6 µM with SF-539 CNS; 25.3 µM with ACHN renal; 32.8 µM with OVCAR-5 ovarian; 28.6 µM with NCI-H522 lung.
For the molecule `COc1ccc2[nH]cc(-c3nc(-c4cn(C)c5ccncc45)cs3)c2c1`, the GI50 with UACC-62 melanoma was 18500 nM; in the experiment on SNB-19 CNS it was 1790 nM; with HCT-116 colon, 1770 nM; in the experiment with SF-539 CNS it was 1900 nM; with UACC-257 melanoma it was 16700 nM; in the experiment on ACHN renal, 1820 nM. Also, the figures for the GI50 in the experiment on OVCAR-5 ovarian, in the experiment on NCI-H522 lung and in the experiment with MDA-MB-435 were 2000 nM, 1740 nM and 1710 nM, respectively. For the same molecule, the TGI in the experiment on UACC-62 melanoma was found to be 37.5 µM; with SNB-19 CNS it was 3.57 µM; in the experiment with HCT-116 colon it was 3.21 µM; in the experiment with SF-539 CNS, 3.37 µM; with UACC-257 melanoma, 33.3 µM; in the experiment with ACHN renal, 3.21 µM. Further, the TGI with OVCAR-5 ovarian amounted to 3.6 µM; in the experiment with NCI-H522 lung, 3.52 µM; with MDA-MB-435, 3.22 µM.
As to `O=c1[nH]c(Br)nc2c(Br)c[nH]c12`, the TGI in the experiment on UACC-62 melanoma, in the experiment with SNB-19 CNS, with HCT-116 colon, with SF-539 CNS, in the experiment with UACC-257 melanoma and in the experiment with ACHN renal was greater than 100 µM each time. In addition, the TGI in the experiment with OVCAR-5 ovarian and in the experiment with NCI-H522 lung was greater than 100 µM in each case.
With `O=C(Nc1c(-c2nc3ccccc3[nH]2)sc(=S)n1-c1ccccc1)c1ccccc1`, the TGI with UACC-62 melanoma, in the experiment on SNB-19 CNS, in the experiment with SF-539 CNS, in the experiment with UACC-257 melanoma, in the experiment on ACHN renal and in the experiment on OVCAR-5 ovarian was greater than 100 µM in each case. Further, in the experiment on NCI-H522 lung, the TGI is greater than 100 µM.
Regarding `Brc1ccc([I+]c2ccc(Br)cc2)cc1`, the GI50 in the experiment on UACC-62 melanoma is 2870 nM; in the experiment on SNB-19 CNS it was 1380 nM; with HCT-116 colon, 643 nM; in the experiment with SF-539 CNS it was 1370 nM; with UACC-257 melanoma it was 2060 nM; with ACHN renal, 4470 nM. For the same molecule, the GI50 was 2580 nM in the experiment with OVCAR-5 ovarian, 1280 nM in the experiment with NCI-H522 lung and 1940 nM with MDA-MB-435. In addition, the TGI was 17.5 µM with UACC-62 melanoma; 2.76 µM in the experiment with SNB-19 CNS; 11.5 µM in the experiment on HCT-116 colon; 4.28 µM in the experiment on SF-539 CNS; 5.53 µM with UACC-257 melanoma; 21 µM in the experiment with ACHN renal. In addition, the figures for the TGI with OVCAR-5 ovarian, with NCI-H522 lung and in the experiment with MDA-MB-435 were 7.9 µM, 3.18 µM and 17 µM, respectively.
For the molecule `CCC[CH2][Sn]([CH2]CCC)([O]C(=O)c1cccc(F)c1)[O]C(=O)c1cccc(F)c1`, the GI50 with UACC-62 melanoma is 719 nM; in the experiment on SNB-19 CNS it was 369 nM; in the experiment with HCT-116 colon it was 1290 nM; in the experiment with SF-539 CNS, 1100 nM; in the experiment on UACC-257 melanoma it was 1170 nM; with ACHN renal, 1300 nM. Further, the figures for the GI50 with OVCAR-5 ovarian and in the experiment with NCI-H522 lung were 2670 nM and 246 nM, respectively. Moreover, the TGI in the experiment on UACC-62 melanoma is 2.09 µM; in the experiment with SNB-19 CNS it was 1.39 µM; in the experiment with HCT-116 colon, 2.55 µM; in the experiment on SF-539 CNS, 2.31 µM; in the experiment on UACC-257 melanoma it was 2.6 µM; in the experiment on ACHN renal, 2.59 µM. In addition, the TGI was 4.24 µM with OVCAR-5 ovarian and 0.91 µM in the experiment with NCI-H522 lung.
Turning to `CC(C)C(=O)N[C@@H](C)C(=O)N(Cc1ccc2ccccc2c1)N=O`, the TGI in the experiment with UACC-62 melanoma, in the experiment on SNB-19 CNS, in the experiment with HCT-116 colon, with SF-539 CNS, in the experiment with UACC-257 melanoma and in the experiment with ACHN renal was greater than 100 µM in each case. The TGI in the experiment on OVCAR-5 ovarian is greater than 100 µM.
As to `Nc1ccc2c(c1)C(=O)c1c(F)cccc1-2`, the TGI with UACC-62 melanoma is greater than 100 µM; in the experiment with SNB-19 CNS, greater than 100 µM; in the experiment with HCT-116 colon it was greater than 100 µM; with SF-539 CNS, 81.1 µM; in the experiment with UACC-257 melanoma it was greater than 100 µM; in the experiment on ACHN renal, greater than 100 µM. For the same molecule, the TGI in the experiment with NCI-H522 lung and in the experiment with MDA-MB-435 was greater than 100 µM in each case.
Turning to `Cn1c(CCC#N)nc2ccc(Br)cc2c1=O`, the TGI in the experiment on UACC-62 melanoma, in the experiment with SF-539 CNS, in the experiment with UACC-257 melanoma, in the experiment on ACHN renal, with OVCAR-5 ovarian and in the experiment with NCI-H522 lung was greater than 100 µM in each case.
Consider `Cc1ccccc1C(=O)Oc1ccc(Oc2ccccc2)cc1`, for which the TGI with UACC-62 melanoma, with SNB-19 CNS, in the experiment on HCT-116 colon, in the experiment on SF-539 CNS, in the experiment with UACC-257 melanoma and in the experiment with ACHN renal was greater than 100 µM throughout. Moreover, in the experiment with OVCAR-5 ovarian, the TGI was greater than 100 µM.
In the case of `COc1ccc2c3c1C(=O)CCC3CO2` (configuration not stated), the TGI in the experiment with UACC-62 melanoma, with SNB-19 CNS, with HCT-116 colon, in the experiment with SF-539 CNS, in the experiment on UACC-257 melanoma and with ACHN renal was greater than 100 µM throughout. For the same molecule, the TGI in the experiment on OVCAR-5 ovarian and in the experiment on NCI-H522 lung was greater than 100 µM each time.
For the molecule `CC(=O)N1CC2Nc3ccccc3C2CC1CO` (configuration not stated), the TGI in the experiment on UACC-62 melanoma, with SNB-19 CNS, in the experiment with HCT-116 colon, with SF-539 CNS, in the experiment on UACC-257 melanoma and with ACHN renal was greater than 100 µM each time. For the same molecule, the TGI with OVCAR-5 ovarian and in the experiment with NCI-H522 lung was greater than 100 µM in each case.
